Results reported in PubChem BioAssay AID493133 (Sanford-Burnham Center for Chemical Genomics, 2011).
Active and inactive are the calls of the source. The rule behind the calls is not given here.

Target: Alkaline phosphatase, tissue-nonspecific isozyme (Homo sapiens) (UniProt P05186)
Test: human TNAP activity change by analogs – biochemical, selectivity assay for mouse IAP activator project, SAR follow-up (AID 493133)
Details: purified human TNAP enzyme, phosphatase activity counter-screen

Chain of Alkaline phosphatase, tissue-nonspecific isozyme (Homo sapiens) (P05186 whole entry, looked up): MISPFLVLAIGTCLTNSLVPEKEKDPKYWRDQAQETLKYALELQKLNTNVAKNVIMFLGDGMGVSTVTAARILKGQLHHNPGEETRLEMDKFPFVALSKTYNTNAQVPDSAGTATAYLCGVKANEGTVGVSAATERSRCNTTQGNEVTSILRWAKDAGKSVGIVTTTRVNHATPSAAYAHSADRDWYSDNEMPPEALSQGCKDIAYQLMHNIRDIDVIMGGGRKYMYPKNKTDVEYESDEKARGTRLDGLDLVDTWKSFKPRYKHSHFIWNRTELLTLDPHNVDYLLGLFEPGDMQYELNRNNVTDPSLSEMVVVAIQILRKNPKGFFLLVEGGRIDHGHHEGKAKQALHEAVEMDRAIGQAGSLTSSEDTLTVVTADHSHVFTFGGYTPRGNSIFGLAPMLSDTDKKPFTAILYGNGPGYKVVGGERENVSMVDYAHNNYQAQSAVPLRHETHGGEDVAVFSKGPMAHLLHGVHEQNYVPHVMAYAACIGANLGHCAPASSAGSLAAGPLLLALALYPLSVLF

N#Cc1c(SCC(=O)Nc2ccccc2C(F)(F)F)sc2c(O)cc(=O)[nH]c12
EC50: > 100 µM (inactive)

O=C(CN1C(=O)/C(=C/c2ccco2)SC1=S)Nc1ccc(O)c(C(=O)O)c1
EC50: > 100 µM (inactive)

FC(F)(F)c1cccc(NC(=S)NCCC(c2ccccc2)c2ccccc2)c1
EC50: 84.5 µM

COc1cccc(CNC(=O)CCNS(=O)(=O)c2ccc3[nH]c(=O)oc3c2)c1
EC50: > 100 µM (inactive)

NS(=O)(=O)c1ccc(-c2ccc(/C=C3\SC(=S)N(C4CCS(=O)(=O)C4)C3=O)o2)cc1 (stereo not given)
EC50: > 100 µM (inactive)

N#Cc1c(SCC(=O)Nc2ccc(C(F)(F)F)cc2)sc2c(O)cc(=O)[nH]c12
EC50: > 100 µM (inactive)

COc1ccc(NC(=S)NCCC(c2ccccc2)c2ccccc2)cc1
EC50: 44.8 µM

Cc1cc(NC(=O)CSc2sc3c(O)cc(=O)[nH]c3c2C#N)ccc1Br
EC50: > 100 µM (inactive)

COc1cc(C(=O)NNC(=S)NC(=O)c2ccccc2C)cc(OC)c1OC
EC50: 40.5 µM

Cc1ccc(/C=N/NC(=O)c2cc(O)c(O)c(O)c2)cc1
EC50: > 100 µM (inactive)

COc1ccccc1NC(=O)CCNS(=O)(=O)c1ccc2[nH]c(=O)oc2c1
EC50: > 100 µM (inactive)

O=C(CCN1C(=O)/C(=C\c2ccco2)SC1=S)Nc1ccc(C(=O)O)c(O)c1
EC50: > 100 µM (inactive)

CCOc1ccccc1NC(=O)CCNS(=O)(=O)c1ccc2[nH]c(=O)oc2c1
EC50: > 100 µM (inactive)

O=C(c1ccco1)N1CCN(S(=O)(=O)c2ccc3[nH]c(=O)oc3c2)CC1
EC50: > 100 µM (inactive)

COc1ccc(NC(=O)CCNS(=O)(=O)c2ccc3[nH]c(=O)oc3c2)cc1Cl
EC50: > 100 µM (inactive)

CCCSc1nnc(NC(=O)CSc2sc3c(O)cc(=O)[nH]c3c2C#N)s1
EC50: > 100 µM (inactive)

COc1ccc(CNC(=O)CSc2sc3c(O)cc(=O)[nH]c3c2C#N)cc1OC
EC50: > 100 µM (inactive)

O=C(C1CCN(S(=O)(=O)c2ccc3[nH]c(=O)oc3c2)CC1)N1CC=C(c2ccccc2)CC1
EC50: > 100 µM (inactive)

O=C(CN1C(=O)/C(=C/c2ccco2)SC1=S)NC1CCS(=O)(=O)C1 (stereo not given)
EC50: > 100 µM (inactive)

CCOC(=O)N1CCC(NC(=O)CSc2sc3c(O)cc(=O)[nH]c3c2C#N)CC1
EC50: > 100 µM (inactive)

N#Cc1c(SCC(=O)Nc2cccc(F)c2)sc2c(O)cc(=O)[nH]c12
EC50: > 100 µM (inactive)

Cc1ccc(NC(=O)CCNS(=O)(=O)c2ccc3[nH]c(=O)oc3c2)cc1N(C)C
EC50: > 100 µM (inactive)

N#Cc1c(SCC(=O)Nc2nc3ccc(Br)cc3s2)sc2c(O)cc(=O)[nH]c12
EC50: > 100 µM (inactive)

CCOC(=O)N1CCN(S(=O)(=O)c2ccc3[nH]c(=O)oc3c2)CC1
EC50: > 100 µM (inactive)

CCN(C(=O)CN1C(=O)/C(=C\c2ccco2)SC1=S)C1CCS(=O)(=O)C1 (stereo not given)
EC50: > 100 µM (inactive)

Cc1cc(=O)oc2cc(NC(=S)NCCC(c3ccccc3)c3ccccc3)ccc12
EC50: > 100 µM (inactive)

O=C(CN1C(=O)/C(=C/c2ccco2)SC1=S)Nc1cccc(C(=O)O)c1
EC50: > 100 µM (inactive)

COc1cccc(/C=N/NC(=O)c2cc(O)c(O)c(O)c2)c1
EC50: > 100 µM (inactive)

N#Cc1c(SCC(=O)Nc2nccs2)sc2c(O)cc(=O)[nH]c12
EC50: > 100 µM (inactive)

CCc1nnc(NC(=O)CSc2sc3c(O)cc(=O)[nH]c3c2C#N)s1
EC50: > 100 µM (inactive)

O=C(N/N=C/c1ccsc1)c1cc(O)c(O)c(O)c1
EC50: > 100 µM (inactive)

O=C(O)CC(C(=O)O)N1C(=O)/C(=C/c2ccc(-c3nc4ccccc4s3)o2)SC1=S (stereo not given)
EC50: > 100 µM (inactive)

CN(C(=O)CN1C(=O)/C(=C\c2ccco2)SC1=S)C1CCS(=O)(=O)C1 (stereo not given)
EC50: > 100 µM (inactive)

Cc1ccc(NC(=O)CSc2sc3c(O)cc(=O)[nH]c3c2C#N)c(F)c1
EC50: > 100 µM (inactive)

COc1cccc(NC(=O)CN(C)S(=O)(=O)c2ccc3[nH]c(=O)oc3c2)c1
EC50: > 100 µM (inactive)

COc1cc(C(=O)NNC(=O)C2CC2)cc(OC)c1OC
EC50: > 100 µM (inactive)

O=C(CN1C(=O)/C(=C/c2ccco2)SC1=S)Nc1ccc2nccnc2c1
EC50: > 100 µM (inactive)

COc1cc([N+](=O)[O-])ccc1NC(=S)NCCC(c1ccccc1)c1ccccc1
EC50: > 100 µM (inactive)

Cc1ccc(Cl)cc1NC(=O)CSc1sc2c(O)cc(=O)[nH]c2c1C#N
EC50: > 100 µM (inactive)

COc1ccc(CNC(=O)CSc2sc3c(O)cc(=O)[nH]c3c2C#N)cc1
EC50: > 100 µM (inactive)

CC(C(=O)Nc1ccccc1C(=O)O)N1C(=O)/C(=C\c2ccco2)SC1=S (stereo not given)
EC50: > 100 µM (inactive)

O=C(CN1C(=O)/C(=C\c2ccco2)SC1=S)Nc1ccccc1C(=O)O
EC50: > 100 µM (inactive)

C/C(=N\NC(=O)c1cc(O)c(O)c(O)c1)c1ccncc1
EC50: > 100 µM (inactive)

CSc1cccc(NC(=O)CCNS(=O)(=O)c2ccc3[nH]c(=O)oc3c2)c1
EC50: > 100 µM (inactive)

COc1cc(C(=O)NN=Cc2ccccn2)cc(OC)c1OC
EC50: 31 µM

O=C(CCCN1C(=O)/C(=C\c2ccco2)SC1=S)Nc1ccc(O)cc1C(=O)O
EC50: > 100 µM (inactive)

CCc1ccc(NC(=O)CN(C)S(=O)(=O)c2ccc3[nH]c(=O)oc3c2)cc1
EC50: > 100 µM (inactive)

COc1cc(C(=O)NNC(=O)c2n[nH]c3ccccc23)cc(OC)c1OC
EC50: 75 µM

COC(=O)c1ccc(C)c(NC(=O)CSc2sc3c(O)cc(=O)[nH]c3c2C#N)c1
EC50: > 100 µM (inactive)

COc1ccc(OC)c(NC(=O)CCNS(=O)(=O)c2ccc3[nH]c(=O)oc3c2)c1
EC50: > 100 µM (inactive)

Cc1ccc(C)c(NC(=O)CCNS(=O)(=O)c2ccc3[nH]c(=O)oc3c2)c1
EC50: > 100 µM (inactive)

CC(C)c1ccc(NC(=O)CCNS(=O)(=O)c2ccc3[nH]c(=O)oc3c2)cc1
EC50: > 100 µM (inactive)

COc1ccc(NC(=O)C(CC(C)C)NS(=O)(=O)c2ccc3[nH]c(=O)oc3c2)cc1 (stereo not given)
EC50: > 100 µM (inactive)

N#Cc1c(SCC(=O)Nc2nc3ccccc3s2)sc2c(O)cc(=O)[nH]c12
EC50: > 100 µM (inactive)

CN1CCC(=NNC(=O)c2cc(O)c(O)c(O)c2)CC1
EC50: > 100 µM (inactive)

CC(C(=O)Nc1ccc(C(=O)O)c(O)c1)N1C(=O)/C(=C\c2ccco2)SC1=S (stereo not given)
EC50: > 100 µM (inactive)

COc1ccc(N2CCN(C(=O)CN3C(=O)/C(=C\c4ccco4)SC3=S)CC2)cc1
EC50: > 100 µM (inactive)

CC(C(=O)Nc1ccc(C(=O)O)cc1)N1C(=O)/C(=C\c2ccco2)SC1=S (stereo not given)
EC50: > 100 µM (inactive)

O=C(N/N=C/c1ccc(F)cc1)c1cc(O)c(O)c(O)c1
EC50: > 100 µM (inactive)

O=S(=O)(Nc1ncccn1)c1ccc(NC(=S)NCCC(c2ccccc2)c2ccccc2)cc1
EC50: > 100 µM (inactive)

CC(C(=O)Nc1cccc(C(=O)O)c1)N1C(=O)/C(=C\c2ccco2)SC1=S (stereo not given)
EC50: > 100 µM (inactive)

O=C(CCNS(=O)(=O)c1ccc2[nH]c(=O)oc2c1)Nc1cccc(-c2ccno2)c1
EC50: > 100 µM (inactive)

Cc1csc(NC(=O)CSc2sc3c(O)cc(=O)[nH]c3c2C#N)n1
EC50: > 100 µM (inactive)

COc1ccc(NC(=O)CSc2sc3c(O)cc(=O)[nH]c3c2C#N)c(OC)c1
EC50: > 100 µM (inactive)

O=C(CCN1C(=O)/C(=C/c2ccco2)SC1=S)Nc1ccc(O)cc1C(=O)O
EC50: > 100 µM (inactive)
